Source: US6989393B2, “Ccr5 modulators benzimidazoles or benzotriazoles” (AstraZeneca AB, priority 2000, dated 2006)

SMILES | melting point
c1ccc(C(CCN2CCC(n3cnc4ccccc43)CC2)c2ccccc2)cc1 [Example 2, 1-[1-(3,3-Diphenylpropyl)-piperidin-4-yl]benzimidazole] | 156 to 157 °C
N#CC(CCN1CCC(n2cnc3ccccc32)CC1)(c1ccccc1)c1ccccc1 [Example 19, 1-[1-(3-Cyano-3,3-diphenylpropyl)-piperidin-4-yl]benzimidazole] | 172 to 173 °C
